Experimental data: US4194006A, “Therapeutic application of acetyl-d,l-carnitine and other acyl derivatives of d,l-carnitine” (priority 1977, dated 1980)
Where two headings read alike, the source gives them in different places.

Legend:
isolated rat atrium = assay: antiarrhythmic effect, isolated rat atrium method of M. Libonati and G. Segre; conditions: Rattus norvegicus; for inhibition at 0.1 µg/mL / activation at 0.1 µg/mL: 1·10^-4 g/lt; for inhibition at 0.1 µg/mL / inhibition at 0.01 µg/mL / inhibition at 0.001 µg/mL: decrease; for activation at 0.1 µg/mL / activation at 0.01 µg/mL / activation at 0.001 µg/mL: increase; for inhibition at 0.01 µg/mL / activation at 0.01 µg/mL: 1·10^-5 g/lt; for inhibition at 0.001 µg/mL / activation at 0.001 µg/mL: 1·10^-6 g/lt
isolated rabbit hearts [1] = assay: cardiokinetic effect on isolated heart (Langendorff): contractile force after anoxia, positive inotropic effect; conditions: 10 minutes from interruption of anoxic period
Procedure: (§1) The cardiokinetic effect on isolated heart was also investigated as follows. Rabbit hearts isolated by the Langendorff method were perfused with oxygenized ringer solution at 38.2° C. The isometric contractions, electrocardiogram and coronary flow were recorded using a "Battaglia-Rangoni" polygraph. By removing the oxygen from the perfusion fluid, metabolic damage was induced in the cardia muscle, up to an 80% reduction in the cardiac contractile force.
(§2) Under these conditions of prolonged anoxia the aerobic glycolysis of the myocardium is slowed down, accompanied by the storage of acid catabolites due to both the accumulation of pyruvic acid and its conversion to lactic acid which cannot be utilized because of the depression of pyridine enzymes, such as LDH (lactodehydrogenase). This has repercussions on the anaerobic glycolysis affecting an ever increasing number of enzymes, accompanied by a progressive and increasingly critical exhaustion of the myocardium. Thus a whole series of cardiac muscle fatigue levels occurs which can be observed by the behavior of the examined parameters, namely the contractile force, coronary flow, heart rate and cardiac rhythm. As soon as the contractile force was reduced by 80%, the perfusion fluid was once again oxygenized either without adding other compounds (controls) or with the addition of the compounds under examination.
Table 3 below gives the percentage values of the contractile force of the heart, showing a positive inotropic effect, calculated after 10 minutes from the interruption of the anoxic period (myocardial restoration).

female rats = assay: antifatigue effect: rota-rod; format: in vivo, rat; conditions: Rattus norvegicus, ip, 0.25 h, read-out: percentage of animals staying on the rota-rod more than 180 seconds; for responders at 300 mg/kg: 300 mg/kg i.p.; for responders at 400 mg/kg: 400 mg/kg i.p.; for responders at 600 mg/kg: 600 mg/kg i.p.
Procedure: The antifatigue effect was also examined with the following results. The antifatigue effect was investigated by administering the compounds of the formula (I) according to the present application to female rats intraperitoneally in saline solution and saline solution alone to the controls by the same route. Every 15 minutes (sessions) after treatment, the animals were placed on a 6 cm diameter rod, rotating at 16 r.p.m. The percentage of the animals capable of staying on the rota-rod for a duration of more than 180 seconds was then recorded.

isolated rabbit hearts [2] = assay: coronary vasodilator effect: coronary flow, isolated heart (Langendorff)
Procedure: as §1, §2

[3] = read-out: Mean percent variation versus controls: excitability (-%)
[4] = read-out: Mean percent variation versus controls: frequency max (-%)
[5] = read-out: Mean percent variation versus controls: refractory period (+%)
[6] = read-out: Mean percent variation versus controls: rheobase (+%)
[7] = session 6 (every 15 minutes), * p < 0.05

| Compound | inhibition at 0.1 µg/mL (isolated rat atrium; [3]) | inhibition at 0.1 µg/mL (isolated rat atrium; [4]) | activation at 0.1 µg/mL (isolated rat atrium; [5]) | activation at 0.1 µg/mL (isolated rat atrium; [6]) | inhibition at 0.01 µg/mL (isolated rat atrium; [3]) | inhibition at 0.01 µg/mL (isolated rat atrium; [4]) | activation at 0.01 µg/mL (isolated rat atrium; [5]) | activation at 0.01 µg/mL (isolated rat atrium; [6]) | inhibition at 0.001 µg/mL (isolated rat atrium; [3]) | inhibition at 0.001 µg/mL (isolated rat atrium; [4]) | activation at 0.001 µg/mL (isolated rat atrium; [5]) | activation at 0.001 µg/mL (isolated rat atrium; [6]) | Contractile force, Mean ± S.E. (isolated rabbit hearts [1]; 1·10^-5 g/lt) | Contractile force, Mean ± S.E. (isolated rabbit hearts [1]; 1·10^-6 g/lt) | Contractile force, Mean ± S.E. (isolated rabbit hearts [1]; 5·10^-6 g/lt) | responders at 300 mg/kg (female rats; session 1 (every 15 minutes)) | responders at 300 mg/kg (female rats; session 2 (every 15 minutes)) | responders at 300 mg/kg (female rats; session 3 (every 15 minutes)) | responders at 300 mg/kg (female rats; session 4 (every 15 minutes)) | responders at 300 mg/kg (female rats; session 5 (every 15 minutes)) | also measured |
| --- | --- | --- | --- | --- | --- | --- | --- | --- | --- | --- | --- | --- | --- | --- | --- | --- | --- | --- | --- | --- | --- |
| CCCC(=O)OC(CC(=O)[O-])C[N+](C)(C)C (racemic) [butyryl-d,l-carnitine] | 63.7% | 62.3% | 38% | 55% | 31.9% | 30.4% | 25.9% | 40.8% | 12.9% | 24.8% | 18.2% | 28.3% | 51.5 ± 5.02% | 30.6 ± 4.51% | 35.6 ± 6.19% | 0% | 0% | 0% | 0% | 0% | responders at 300 mg/kg (female rats; session 6 (every 15 minutes)): 10%; responders at 400 mg/kg (female rats; session 1 (every 15 minutes)): 0%; responders at 400 mg/kg (female rats; session 2 (every 15 minutes)): 0%; responders at 400 mg/kg (female rats; session 3 (every 15 minutes)): 0%; responders at 400 mg/kg (female rats; session 4 (every 15 minutes)): 10%; responders at 400 mg/kg (female rats; session 5 (every 15 minutes)): 10%; responders at 400 mg/kg (female rats; [7]): 20%; responders at 600 mg/kg (female rats; session 1 (every 15 minutes)): 0%; responders at 600 mg/kg (female rats; session 2 (every 15 minutes)): 0%; responders at 600 mg/kg (female rats; session 3 (every 15 minutes)): 10%; responders at 600 mg/kg (female rats; session 4 (every 15 minutes)): 20%; responders at 600 mg/kg (female rats; session 5 (every 15 minutes)): 20%; responders at 600 mg/kg (female rats; [7]): 40%; Coronary flow, Mean ± S.E. (isolated rabbit hearts [2]; 1·10^-5 g/lt): 90.12 ± 8.18%; Coronary flow, Mean ± S.E. (isolated rabbit hearts [2]; 1·10^-6 g/lt): 74.01 ± 6.19% |
| CCCCCCCCCC(=O)OC(CC(=O)[O-])C[N+](C)(C)C (racemic) [decanoyl-d,l-carnitine] | 25.2% | 24.8% | 21.6% | 21.2% | 17.2% | 12% | 10.3% | 9.54% | 0% | 8.66% | 9.14% | 3.12% | 36.3 ± 6.53% | 26.9 ± 5.02% | 29.1 ± 3.12% | 0% | 0% | 0% | 10% | 10% | responders at 300 mg/kg (female rats; session 6 (every 15 minutes)): 10%; responders at 400 mg/kg (female rats; session 1 (every 15 minutes)): 0%; responders at 400 mg/kg (female rats; session 2 (every 15 minutes)): 0%; responders at 400 mg/kg (female rats; session 3 (every 15 minutes)): 0%; responders at 400 mg/kg (female rats; session 4 (every 15 minutes)): 10%; responders at 400 mg/kg (female rats; session 5 (every 15 minutes)): 10%; responders at 400 mg/kg (female rats; [7]): 10%; responders at 600 mg/kg (female rats; session 1 (every 15 minutes)): 0%; responders at 600 mg/kg (female rats; session 2 (every 15 minutes)): 0%; responders at 600 mg/kg (female rats; session 3 (every 15 minutes)): 0%; responders at 600 mg/kg (female rats; session 4 (every 15 minutes)): 10%; responders at 600 mg/kg (female rats; session 5 (every 15 minutes)): 10%; responders at 600 mg/kg (female rats; [7]): 20%; Coronary flow, Mean ± S.E. (isolated rabbit hearts [2]; 1·10^-5 g/lt): 83.21 ± 5.70%; Coronary flow, Mean ± S.E. (isolated rabbit hearts [2]; 1·10^-6 g/lt): 76.30 ± 9.42%; Coronary flow, Mean ± S.E. (isolated rabbit hearts [2]; 5·10^-6 g/lt): 72.60 ± 12.4% |
